Measurements as given in US20070259866A1, “Method of Adenovirus, HIV and HPV Prophylaxis” (priority 1999, published 2007).
Several values for one entry are separate records, joined by “and”; a condition that tells them apart may be missing. Identical values can stand only once.

Legend:
[1] = tested on: NL-HX (T cell-tropic isolate) Virus; test: Inactivation of HIV stock by 1 hr drug treatment, then PBMC infection, fluorescent focus assay (NL-HX); type: cell-based, Human Immunodeficiency Virus (HIV); settings: for Average # infected cells/area / # infected cells/area (~500 cells): 8 days; for # infected cells/area (~500 cells): single area counts
Protocol: In a study of the prophylactic effects of Compound 96 on Human Immunodeficiency Virus (HIV), virus stock solutions were inactivated by treatment with Compound 96. Stock solutions of viral types NL-HX-ADA having a p24 concentration of 4.1 μg/ml and NL-HX (P122) having a p24 concentration of 3.8 μg/ml were used for the study, along with a stock solution of Compound 96 having a concentration of 20 mg/ml in RPMI media.
Concentrated stock solution of viruses were treated for 1 hr with equal volume of medium containing the drug at the following concentrations:
(§1) After the 1 hr treatment period, the virus-drug solutions were diluted 1:1,000 with complete medium, and then mixed with an equal volume of Peripheral Blood Mononucleocyte (PBMC) cells, for a final dilution of virus and drug of 1:4,000.
(§2) The infected cultures were then incubated without any washing or other changes in media for 4 days (for the M-tropic NL-HX-ADA type) and 8 days (for the T-tropic NL-HX type). The cultures were then assayed for infection using standard fluorescent focus assays to quantitate infected cells.

[2] = tested on: NL-HX-ADA (macrophage-tropic isolate) Virus; test: Control infections: untreated NL-HX-ADA virus added to PBMC cultures containing the final dilution of the drug; type: cell-based, Human Immunodeficiency Virus (HIV); settings: for Control culture: # infected cells/area (~500 cells) / Control culture: Average # infected cells/area: untreated virus; for Control culture: # infected cells/area (~500 cells): single area counts
Protocol: as §1, §2
(§3) Control infections were performed by adding untreated viruses at a p24 concentration of 1 ng/ml into cultures containing the final dilution of the drug. This controlled for any residual effect the diluted drug may have on the health of the PBMC culture and their ability to replicate virus.

[3] = tested on: NL-HX (T cell-tropic isolate) Virus; test: Control infections: untreated NL-HX virus added to PBMC cultures containing the final dilution of the drug; type: cell-based, Human Immunodeficiency Virus (HIV); settings: for Control culture: # infected cells/area (~500 cells) / Control culture: Average # infected cells/area: untreated virus; for Control culture: # infected cells/area (~500 cells): single area counts
Protocol: as §1, §2, §3

[4] = tested on: varicella-zoster virus; test: Inhibition of varicella-zoster virus infection in vitro; type: cell-based
Source text: Compound 96 inhibited varicella-zoster virus infection >98% in vitro.

[5] = tested on: adenovirus; test: Inhibition of adenovirus infection in A549 cells in vitro; type: cell-based
Source text: Compound 96 inhibited adenovirus infection 67% in A549 cells in vitro.

[6] = virus treated 1 hr at 0.625 mg/ml
[7] = virus treated 1 hr at 1.25 mg/ml
[8] = virus treated 1 hr at 2.5 mg/ml
[9] = even at the highest concentration tested (5 μg/ml)
[10] = culture with final dilution of the 0.625 mg/ml (residual 0.3 μg/ml)
[11] = culture with final dilution of the 1.25 mg/ml (residual 0.6 μg/ml)
[12] = culture with final dilution of the 2.5 mg/ml column (residual 1.25 μg/ml)
[13] = culture with final dilution of the 5 mg/ml column (residual 2.5 μg/ml)
[14] = culture with final dilution of the 10 mg/ml column (residual 5 μg/ml)
[15] = final dilution of the 0.625 mg/ml column (residual 0.3 μg/ml)
[16] = final dilution of the 1.25 mg/ml column (residual 0.6 μg/ml)
[17] = final dilution of the 2.5 mg/ml column (residual 1.25 μg/ml)
[18] = final dilution of the 5 mg/ml column (residual 2.5 μg/ml)
[19] = final dilution of the 10 mg/ml column (residual 5 μg/ml)

SMILES: CC1=CC(C)=[N+]2CC[N+]3=C(C)C=C(C)[O][Co-4]23([n+]2cc[nH]c2C)([n+]2cc[nH]c2C)[O]1.[Br-] [Compound 96]
- reduction in infectivity ([1]; any drug-treated sample vs control infection (800-1200 infected cells per well)): ≥ 1,000 fold
- infected cells when the entire well was scanned ([1]; any of the drug-treated samples): No infected cells were detected
- inactivation of treated virus ([1]; even at the lowest concentration of drug tested (0.625 mg/ml), 1 hr treatment): completely inactivated
- Average # infected cells/area [1, 6]: 0 cells/area
- # infected cells/area (~500 cells) [1, 6]: 0 cells/area
- Average # infected cells/area [1, 7]: 0 cells/area
- # infected cells/area (~500 cells) [1, 7]: 0 cells/area
- Average # infected cells/area [1, 8]: 0 cells/area
- # infected cells/area (~500 cells) [1, 8]: 0 cells/area
- Average # infected cells/area ([1]; virus treated 1 hr at 5 mg/ml): 0 cells/area
- # infected cells/area (~500 cells) ([1]; virus treated 1 hr at 5 mg/ml): 0 cells/area
- Average # infected cells/area ([1]; virus treated 1 hr at 10 mg/ml): 0 cells/area
- # infected cells/area (~500 cells) ([1]; virus treated 1 hr at 10 mg/ml): 0 cells/area
- toxicity or inhibition in control cultures receiving the diluted drugs [2, 9]: No toxicity or inhibition
- Control culture: # infected cells/area (~500 cells) [2, 10]: 17 cells/area and 16 cells/area and 18 cells/area
- Control culture: # infected cells/area (~500 cells) [2, 11]: 16 cells/area and 15 cells/area and 17 cells/area and 18 cells/area
- Control culture: # infected cells/area (~500 cells) [2, 12]: 17 cells/area and 18 cells/area and 15 cells/area and 16 cells/area
- Control culture: # infected cells/area (~500 cells) [2, 13]: 16 cells/area and 17 cells/area and 15 cells/area and 18 cells/area
- Control culture: # infected cells/area (~500 cells) [2, 14]: 15 cells/area and 16 cells/area and 17 cells/area
- Control culture: Average # infected cells/area [2, 15]: 16.50 cells/area
- Control culture: Average # infected cells/area [2, 16]: 16.38 cells/area
- Control culture: Average # infected cells/area [2, 17]: 16.50 cells/area
- Control culture: Average # infected cells/area [2, 18]: 16.25 cells/area
- Control culture: Average # infected cells/area [2, 19]: 16.00 cells/area
- toxicity or inhibition in control cultures receiving the diluted drugs [3, 9]: No toxicity or inhibition
- Control culture: # infected cells/area (~500 cells) [3, 10]: 11 cells/area and 10 cells/area
- Control culture: # infected cells/area (~500 cells) [3, 11]: 9 cells/area and 8 cells/area and 11 cells/area and 10 cells/area
- Control culture: # infected cells/area (~500 cells) [3, 12]: 10 cells/area and 11 cells/area
- Control culture: # infected cells/area (~500 cells) [3, 13]: 10 cells/area and 8 cells/area and 9 cells/area
- Control culture: # infected cells/area (~500 cells) [3, 14]: 10 cells/area and 9 cells/area and 11 cells/area
- Control culture: Average # infected cells/area [3, 15]: 10.3 cells/area
- Control culture: Average # infected cells/area [3, 16]: 9.5 cells/area
- Control culture: Average # infected cells/area [3, 17]: 10.3 cells/area
- Control culture: Average # infected cells/area [3, 18]: 8.8 cells/area
- Control culture: Average # infected cells/area [3, 19]: 9.8 cells/area
- inhibited varicella-zoster virus infection [4]: > 98%
- inhibited adenovirus infection [5]: 67%
